SMILES strings stand for the structures.

In general, melting point refers to the temperature, or range, at which the solid turns liquid. On to `COc1ccc2[nH]cc(CC(=O)N3CCN(c4ccc([N+](=O)[O-])cc4)CC3)c2c1`, for which the melting point lay within 239 to 240 °C. `CC1=NN=C(c2ccc([N+](=O)[O-])cc2)c2cc(Br)ccc2C1` yielded a melting point of 200 to 205 °C. As for `Cc1ccc(-c2[nH]c(-c3cccc4ccccc34)nc2C(=O)Nc2nccs2)cc1`, the melting point was 228 to 229 °C. In turn, `NNC(=O)c1cnn(-c2ccc(NN)nn2)c1N` displayed a melting point of 302 to 305 °C. Consider `C#CCCCCn1ncc2c(N)c(C(=O)OCC=C)c(C)nc21`, for which the melting point lay in the range of 69 to 70 °C. The compound `O=C1CCCc2ccccc2N1Cc1cccc(Br)c1` showed a melting point of 81 to 82 °C. For `CS(=O)(=O)c1ccc(-c2scnc2-c2ccc(F)cc2)cc1`, the melting point is 138 to 139 °C. Take `Clc1cccc(-c2ncoc2-c2ccncc2)c1`: the melting point was in the range of 125 to 126 °C.

On to `CC(C)(C)c1cc(CCc2cc(F)ccc2NC(=O)NC2CCN(Cc3ccccc3)CC2)cc(C(C)(C)C)c1O`, for which the melting point lay within 108 to 109 °C. `CSc1ccc(C(=O)Nc2ccccc2)cc1[N+](=O)[O-]` came in with a melting point of 219 to 222 °C. Compound `O=C(O)/C=C/c1ccc(Oc2c(-c3ccccc3)c(C3CC3)cc3cc(O)ccc23)cc1` yielded a melting point of 242 to 243 °C. In the case of `Cc1oc2cc(C3CC(=O)OC(=O)C3)ccc2c1C`, the melting point is 145 to 147 °C. With `CCCCCN1C(=O)C(NC(=O)OC(C)(C)C)c2ccccc21` (stereo not given), the melting point fell in the range of 145 to 147 °C. In turn, `COc1ccc(C(=O)CN2CCc3cc(OCc4ccccc4)c(OC)cc3C2)cc1OC` displayed a melting point of 126 to 127 °C. For `COC(=O)C(=O)c1ccc(OCCCOc2ccccc2)cc1`, the melting point lay in the range of 61 to 62 °C. In turn, `COc1c(C=O)cc(Cl)c(Cl)c1OC` showed a melting point of 75 to 77 °C.

`Cc1ccc(S(=O)(=O)N(C)c2ccc(Cl)cc2N=O)cc1` had a melting point of 113 to 114 °C.

Compound `Cc1ccc(CC(=O)CCCC(=O)O)c(C)c1` had a melting point of 75 to 76.5 °C. Turning to `O=C(COc1ccccc1)NCCCn1ccnc1`, the melting point fell in the range of 91 to 93 °C. On to `Oc1ccc(-c2c3ccccc3cc3sc4cc(O)ccc4c23)cc1`, for which the melting point lay in the range of 197 to 199 °C.

Compound `C[C@@H](S[C@H]1CC[C@H](/C=C/C=C/c2ccc(C(F)(F)F)cc2)CC1)[C@](O)(Cn1cncn1)c1ccc(F)cc1F` showed a melting point of 74 to 76 °C. Turning to `CCn1nnc(-c2cccc(-c3ccnc4c(C(=O)c5cccs5)cnn34)c2)n1`, the melting point came to 174 °C. As for `CC(=O)c1c(O)cccc1OCC(O)COc1ccccc1C` (stereo not given), the melting point was 101 to 102 °C. Then `CCn1cc(C(=O)O)c(=O)c2cc(F)c(N3CCN(S(=O)(=O)c4ccc(F)cc4)CC3)c(F)c21`, with 243 to 244 °C; and `CCOC(=O)CC(=O)c1cc(F)c(S(=O)(=O)c2ccccc2)nc1Nc1ccc(F)cc1F`, with 140 to 141 °C; and `COC(=O)C1(CN=Cc2ccccc2)C=CC=CC1` (stereo not given), with 86 to 89 °C. For the compound `COC(=O)CCc1ccc(OCCN(C)c2nc3ccccc3o2)cc1`, the melting point was 51 to 52 °C.

With `CC1CN(c2ccccc2)C(=O)N(c2cccc(C(F)(F)F)c2)C1` (stereo not given), the melting point is 121 to 123 °C.

As to `COCc1c(C(=O)OC(C)C)ncc2c1c1c(OCc3ccccc3)cccc1n2CC(=O)N(C)CCc1ccccc1`, the melting point was 146 to 147 °C. Compound `O=C1Nc2ccc(Br)cc2C1c1ncnc2nn(C3CCCCC3)cc12` (stereo not given) had a melting point of 285 to 290 °C. `C[C@@H](O)CCN1CCC(c2noc3cc(F)ccc23)CC1` returned a melting point of 82 to 84 °C. Consider `COCCOc1ccc(COC(=O)NS(=O)(=O)NCC2CC2)c(Oc2ncc(C(F)(F)F)cc2Cl)c1`, for which the melting point came to 150 °C. Then `O=C(Nc1ccc(F)c(C(F)(F)F)c1)N1COc2cc(O)ccc21`, with 171 to 172 °C.

Consider `CNCc1ccc(C2CCN(c3c(F)c(N)c4c(=O)c(C(=O)O)cn(C5CC5)c4c3F)C2)cc1` (stereo not given), for which the melting point was in the range of 201 to 205 °C. The compound `COC(=O)C=C(C)NCc1ccccc1` came in with a melting point of 36 to 37.5 °C. In the case of `CCCCOc1ccccc1-c1ncc(C(=O)OCC)c(=O)[nH]1` it was 123 to 125 °C; in that of `CCNc1nc2ccc(CCc3cn4ccc(C)cc4n3)cc2o1`, 156 to 158 °C; in that of `O=C(NCc1ccc(Cl)cc1)c1cn(-c2ccccn2)c2oc(CCl)cc2c1=O`, 224 to 227 °C. In the case of `CCc1coc(=O)n1C(=O)c1ccccc1Cl` it was 110 to 112 °C. For the compound `CN(C(=O)OC(C)(C)C)[C@H](Cc1ccc2ccccc2c1)C(=O)N1CCc2ccccc2C1`, the melting point was in the range of 121 to 126 °C. In the case of `COc1cc(C#N)ccc1-c1nc2cc(Cl)c(Cl)cc2[nH]1` it was above 250 °C. `CC12C=CC(O)CC1=CCC1C2CCC2(C)C(=O)CCC12` (stereo not given) came in with a melting point of 138 to 140 °C. Regarding `COc1ccc(-c2cc3ccccc3[nH]2)c(O)c1`, the melting point turned out to be 195 °C. Then `CCOC(=O)c1ccc(OC)nc1C(F)(F)F`, with 150 to 152 °C. Consider `C=CCc1cc2c(C)cc(=O)oc2c(C)c1O`, for which the melting point was in the range of 166 to 167 °C. Compound `Cc1ccc(S(=O)(=O)OCCCCCCCCCOc2cccc(C(N)=O)c2)cc1` came in with a melting point of 78 to 80 °C. In the case of `CC(=N)Nc1cccc(C#N)c1`, the melting point was in the range of 228 to 230 °C.

For `CC(C)OC(=O)c1cc(NC(=O)C(C)(C)C)c(F)cc1Cl`, the melting point was in the range of 81 to 83 °C.

The compound `COC(=O)C(C)(C)OCC#Cc1cc(Cl)ccc1NS(=O)(=O)c1cc(C)cc(C)c1` yielded a melting point of 78 to 80 °C. In the case of `Cc1c(C(F)(F)F)noc1NS(=O)(=O)c1ccccc1` it was 99.5 to 100 °C; in that of `CCCCCCCCCCCCc1cc(C(=O)OCC)no1`, 34 to 36 °C. Then `Cc1cc(/C=C/C(c2cc(Cl)cc(Cl)c2)C(F)(F)F)ccc1C(=O)NCc1cncnc1` (stereo not given), with 141 to 144 °C; and `CN(C)C=C1Nn2c(nc(-c3ccc([N+](=O)[O-])o3)c2N)S1`, with 304 °C. Then `CC(CCNC(=O)c1cc2cc(Cl)ccc2[nH]1)n1ccnc1` (stereo not given), with 210 °C; and `CCCCn1c(=O)c2nc(-c3ccc(/C=C/C(=O)O)cc3)[nH]c2n(CCCC)c1=O`, with 350 to 355 °C; and `OCCC(O)OCn1cc(Br)c2c(Cl)ncnc21` (stereo not given), with 152 °C. The compound `CC(Cc1c[nH]c2ccccc12)(NCc1cc2ccccc2o1)C(=O)NCc1cccc(O)c1` (stereo not given) yielded a melting point of 60 to 69 °C. Regarding `NC(=O)N1C(=O)Cc2cc(C(=O)c3ccccc3)ccc21`, the melting point lay within 210 to 211 °C. In the case of `Cc1ccc(-c2nnc(N3CCC(O)C3)nc2-c2ccc(C)cc2)cc1` (stereo not given) it was 147 to 150 °C; in that of `CCCCCCCCCCCOc1ccc(-c2ccc(OCC(C)OC(=O)CC(C)C)cc2)cc1` (stereo not given), 65.4 to 66.5 °C. Then `c1ccc(C(CCOc2ccc(CCC3=NCCCO3)cc2)(c2ccccc2)c2ccccc2)cc1`, with 60 to 63 °C; and `O=C(Nc1ccc2c(c1)OC(F)(F)O2)N1CC(c2ccc(Cl)cc2)=C(c2ccc(Cl)cc2)N1`, with 150 to 155 °C; and `CSc1c(Cl)nc(Cl)nc1SC#N`, with 143 to 144 °C. In the case of `CCCc1c(COc2ccc(Cc3nnn(CCCCCCc4nnn[nH]4)n3)cc2)ccc(C(C)=O)c1O`, the melting point is 110 to 113 °C. In the case of `CC1CC(=O)N(c2ccccc2)c2cc(Cl)ccc2N1C` (stereo not given) it was 113 to 114 °C; in that of `N#CCCNC(=O)C1=C(C(=O)Nc2ccc(Cl)cc2F)CCCC1`, 160 to 161 °C; in that of `Cc1cn(C2CC(ON)C(CO)O2)c(=O)[nH]c1=O` (stereo not given), 81 °C. Then `Cc1c(-c2ccc(C(C)(C)C)cc2)[nH]c2nccnc12`, with 213 to 214 °C; and `Nc1nc2c(c(Nc3ccccc3)n1)-c1ccccc1C2`, with 215 to 217 °C; and `Cc1ncc(COP(=O)(O)O)c(CN(CCN(CC(=O)O)Cc2c(COP(=O)(O)O)cnc(C)c2O)CC(=O)O)c1O`, with 174 to 180 °C. `CC(=O)N(O)C(C)c1cc2ccccc2o1` (stereo not given) came in with a melting point of 130 to 132 °C. In the case of `Clc1ccccc1-c1nc(-c2ccccc2)c(-c2ccccc2)[nH]1`, the melting point fell in the range of 196 to 197 °C. For the compound `O=C1CC(c2ccccc2)c2cccc(O)c21` (stereo not given), the melting point came to 80 °C. In the case of `Cc1cc(-c2cc(C(F)F)n3ncc(I)c3n2)ccc1Cl`, the melting point was found to be 144 °C.

Regarding `C1COCCOCCOCCOCCO1`, the melting point fell in the range of 70 to 71 °C. Consider `CC(=NNc1ccc(C2=NNC(=O)CC2)cc1)c1ccc(C#N)cc1`, for which the melting point fell in the range of 288 to 290 °C. `COc1cn([C@H](C)c2cccc3ccccc23)c(=O)o1` registered a melting point of 89 to 91 °C. As to `CC1(C)Sc2ccccc2C(Cl)=C1C=O`, the melting point is 49 to 52 °C. `CC(=O)Nc1ccc2c3c(cccc13)S(=O)(=O)N2CCCN1CC=C(c2ccccc2)CC1`: the melting point came to 178 °C. As to `COc1ccc2oc(Cc3cccnc3)c(CCNC(C)=O)c2c1`, the melting point stood at 117 °C. `O=C(O)COc1ccc(C2=CC(=O)CC(c3ccccc3)C2)c(Cl)c1Cl` (stereo not given): the melting point lay within 197 to 199 °C.

Take `COc1ccc(N2C(=O)[C@H](O)[C@@H]2CC(C)C)cc1`: the melting point lay in the range of 160 to 163 °C. Regarding `CS(=O)(=O)c1ccc(C#CCF)cc1`, the melting point fell in the range of 97 to 99 °C. For `CN1CCN(CC(=O)Nc2ccc3c(c2)C(=O)c2cc(NC(=O)CN4CCN(C)CC4)ccc2C3=O)CC1`, the melting point worked out at 173 °C.

As to `COC(=O)C1=C(C)NN=C(c2ccco2)C1c1ccccc1Cl` (stereo not given), the melting point is 195 °C. In turn, `CCOC(=O)c1ccc(NCCOc2ccc(Cl)cc2Cl)cc1` displayed a melting point of 111 to 113 °C. Compound `COc1cc(OC)c2c(=O)[nH]c(-c3cc(C)c(OCCN4CCN(C)CC4)c(C)c3)cc2c1` returned a melting point of 195 to 198 °C. `COc1ccc(C=Cc2cccc(C(=O)O)c2)cc1OC1CCCC1` yielded a melting point of 93 to 94 °C. In the case of `Cc1cc(Cl)nc2nc(N3C(=O)c4ccccc4C3CC(=O)N3CCC4(CC3)OCCO4)ccc12` (stereo not given) it was 259 to 262 °C.

In turn, `NC1=NC2(CN(C(=O)c3cccs3)C2)Nc2cccc(F)c21` registered a melting point of 214 to 215 °C.
